{
  "source": "patent US8703964B2",
  "about": "“Bendamustine cyclopolysaccharide compositions” (Supratek Pharma Inc., priority 2009, dated 2014)",
  "key": {"[1]": {"test_system": "Human breast carcinoma MDA-MB 231 s.c. solid tumors", "test": "Human breast carcinoma MDA-MB 231 s.c. solid tumors in nude mice (Example 29)", "assay_type": "in vivo, balb/c nu/nu mice", "conditions": "for Tumor weight after treatment, Average (SEM): 30 mg/kg days 1, 2, 9, 10", "procedure": "balb/c mice aged 5 to 6 weeks were purchased from Charles River Canada Inc. The animals were kept 5 per cage with an air filter cover under light (12 light/dark cycle, light on at 6 H00) and temperature (22° C.±1° C.)-controlled environment. All manipulations of animals were performed under a sterilized laminar hood. The animals had ad libitum access to Purina mouse chow (Pro Lab PMH 4018, Trademark of Agway, Syracuse, N.Y.) and water. These animal studies were conducted according to the “Guidelines for Care and Use of Experimental Animals”. Tumor Cell Culture: Human breast cancer cells MDA-MB 231 were cultured in the appropriated culture medium. The cells were harvested in their logarithmic growth phase for the preparation of tumor implantation. Tumor Implantation: Human tumor or myeloma cells (2.5 to 5.0×10^6 cells) were implanted subcutaneously in 0.200 mL of medium containing 30% Matrigel on the two flanks of balb/c nu/nu mice through a 1 to 2 cm long 20-gauge needle. Treatments: 2 to 3 weeks after tumor cell implantation, animals that developed s.c. solid tumors were selected and divided into several homogeneous groups (n=5 animals per group or dose) with respect to tumor size (0.5 to 0.8 cm in diameter). The treatments were performed next day. The animals were dosed with the following dosing solutions. Control: (0.9%, NaCl) Compositions:\nSubcutaneous solid tumor measurements were performed on the day of first injection and at 3- to 4-day intervals thereafter. The two largest perpendicular diameters of each tumor were measured with calipers and tumor sizes were estimated using the formula: TV=L×W/2 where TV: tumor volume; L: length; W: width. The body weights of animals were also noted.\nThe experiment was performed employing the procedures described in Example 28, using the following compositions for treatment:\nnon-formulated Bendamustine, (30 mg/kg)\nBendamustine (30 mg/kg) in 20% SBECD, 1% LMWP (formulated BM)\nThe treatment was performed on days 1, 2, 9, and 10."}, "RPMI8226 cells": {"test_system": "RPMI8226 cells", "test": "Cytotoxicity of bendamustine compositions pre-incubated with media, WST-1 (Example 23)", "assay_type": "cell-based", "conditions": "for Cell growth: RPMI8226, 72 h; for IC50: Homo sapiens, RPMI-8226, read-out: IC50 of bendamustine, RPMI8226", "procedure": "BM and SBECD/LMWP formulation (40 mg/ml BM in 20% SBECD, 1% LMWP) were incubated in DMEM medium containing 10% FBS for 0, 1, or 4 h and then were added in varying concentrations to RPMI8226 cells. During BM treatment, concentrations of SBECD and LMWP were kept constant in culture medium at […], respectively. Cells were then grown for 72 h. The drug cytotoxicity was evaluated using WST-1 procedure."}, "[2]": {"test": "Pharmacokinetics of bendamustine dosed to rats, composition with SBECD and protamine sulphate (Example 13)", "assay_type": "in vivo", "conditions": "female, Sprague-Dawley, rat, plasma, iv, i.v. 10 mg/kg, read-out: Concentration of bendamustine in rat plasma, Mean (SEM)", "procedure": "Control: 2.5 mg/mL bendamustine hydrochloride, 4.25 mg/mL of mannitol in 0.9% NaCl; dose of 10 mg/kg\nInventive Composition: 2.5 mg/mL bendamustine hydrochloride, 40% w/w sodium sulfobutyl ether β-cyclodextrin, 3% protamine sulfate, 4.3 mg/g mannitol in water (produced according to the process described in Example 10); dose of 10 mg/kg.\nFemale Sprague-Dawley rats (250-350 g). The animals were kept three per cage with an air filter cover under light (12 h light/dark cycle, light on at 06 h00) and controlled temperature of 22° C.+/−1° C. All manipulations with the animals were performed under a sterilized laminar hood. The animals had ad libitum access to Purina mouse chow and water. The animals were fasted overnight and anesthetized, before dosing. Dosing and Sampling: Bendamustine composition and control were administered intravenously to rats in tail vein. After time intervals 5, 15, 30, 45 min, 1, 1.5, 2 and 3 hrs post-injection, the blood samples were collected. The rats were anesthetized by general inhalation of isoflurane. The blood samples were collected from the jugular vein with heparinized tube and kept on ice. Blood was immediately centrifuged, and plasma was separated. The plasma samples were immediately extracted. Sample Extraction and Analysis: The plasma samples 0.100 mL were transferred to plastic tubes. The samples were extracted with 0.400 mL of 100 mM HCl in acetonitrile while being shaken vigorously for 30 seconds. The samples were centrifuged at 10000 RPM for 5 minutes. The supernatant was separated. The samples were frozen in dry ice and kept at −80° C. until HPLC analysis. 20 microliter aliquots were injected into HPLC for analysis. The HPLC conditions: C18 reversed phase column 50×4.6 mm, Symmetry/Shield 3.5 micrometer Column temperature 30° C. Flow rate 1.5 mL/min Injection volume 20 microliters Fluorescence detection at wavelengths: excitation 327 nm, emission 420 nm Mobile phase: Buffer A: 5% acetonitrile 0.1% TFA Buffer B: 90% acetonitrile 0.1% TFA Run time: 10 min The improved pharmacokinetic profiles of Bendamustine for tested composition versus the control is shown in Table 3 below."}},
  "note": "Where two headings read alike, the source gives them in different places.",
  "data": [
    {"smiles": "Cn1c(CCCC(=O)O)nc2cc(N(CCCl)CCCl)ccc21", "note": "[BM, 4-[5-[bis(2-chloroethyl)amino]-1-methylbenzimidazol-2-yl]butanoic acid]", "values": [
      {"measurement": "Tumor weight after treatment, Average (SEM)", "setting": "[1]; day 0", "result": "0.139 (0.013) g"},
      {"measurement": "Tumor weight after treatment, Average (SEM)", "setting": "[1]; day 2", "result": "0.178 (0.027) g"},
      {"measurement": "Tumor weight after treatment, Average (SEM)", "setting": "[1]; day 4", "result": "0.202 (0.039) g"},
      {"measurement": "Tumor weight after treatment, Average (SEM)", "setting": "[1]; day 6", "result": "0.259 (0.049) g"},
      {"measurement": "Tumor weight after treatment, Average (SEM)", "setting": "[1]; day 8", "result": "0.295 (0.054) g"},
      {"measurement": "Tumor weight after treatment, Average (SEM)", "setting": "[1]; day 10", "result": "0.319 (0.044) g"},
      {"measurement": "Tumor weight after treatment, Average (SEM)", "setting": "[1]; day 12", "result": "0.361 (0.050) g"},
      {"measurement": "Tumor weight after treatment, Average (SEM)", "setting": "[1]; day 14", "result": "0.417 (0.054) g"},
      {"measurement": "Tumor weight after treatment, Average (SEM)", "setting": "[1]; day 16", "result": "0.487 (0.067) g"},
      {"measurement": "Inhibition % vs control (on day 16)", "setting": "[1]; 30 mg/kg, Day 1, 2, 9, 10", "result": 38.3, "unit": "%"},
      {"measurement": "Tumor weight on day 16", "setting": "[1]; 30 mg/kg, Day 1, 2, 9, 10, right flank tumors only", "result": "0.487 ± 0.067", "unit": "g"},
      {"measurement": "Cell growth", "setting": "RPMI8226 cells; Bendamustine 1 uM, pre-incubated in medium 0 h", "result": 100, "unit": "%"},
      {"measurement": "Cell growth", "setting": "RPMI8226 cells; Bendamustine 1 uM, pre-incubated in medium 1 h", "result": 100, "unit": "%"},
      {"measurement": "Cell growth", "setting": "RPMI8226 cells; Bendamustine 1 uM, pre-incubated in medium 4 h", "result": 100, "unit": "%"},
      {"measurement": "Cell growth", "setting": "RPMI8226 cells; Bendamustine 15 uM, pre-incubated in medium 0 h", "result": 83, "unit": "%"},
      {"measurement": "Cell growth", "setting": "RPMI8226 cells; Bendamustine 15 uM, pre-incubated in medium 1 h", "result": 100, "unit": "%"},
      {"measurement": "Cell growth", "setting": "RPMI8226 cells; Bendamustine 15 uM, pre-incubated in medium 4 h", "result": 100, "unit": "%"},
      {"measurement": "Cell growth", "setting": "RPMI8226 cells; Bendamustine 31 uM, pre-incubated in medium 0 h", "result": 70, "unit": "%"},
      {"measurement": "Cell growth", "setting": "RPMI8226 cells; Bendamustine 31 uM, pre-incubated in medium 1 h", "result": 100, "unit": "%"},
      {"measurement": "Cell growth", "setting": "RPMI8226 cells; Bendamustine 31 uM, pre-incubated in medium 4 h", "result": 100, "unit": "%"},
      {"measurement": "Cell growth", "setting": "RPMI8226 cells; Bendamustine 62 uM, pre-incubated in medium 0 h", "result": 46, "unit": "%"},
      {"measurement": "Cell growth", "setting": "RPMI8226 cells; Bendamustine 62 uM, pre-incubated in medium 1 h", "result": 106, "unit": "%"},
      {"measurement": "Cell growth", "setting": "RPMI8226 cells; Bendamustine 62 uM, pre-incubated in medium 4 h", "result": 104, "unit": "%"},
      {"measurement": "Cell growth", "setting": "RPMI8226 cells; Bendamustine 125 uM, pre-incubated in medium 0 h", "result": 11, "unit": "%"},
      {"measurement": "Cell growth", "setting": "RPMI8226 cells; Bendamustine 125 uM, pre-incubated in medium 1 h", "result": 20, "unit": "%"},
      {"measurement": "Cell growth", "setting": "RPMI8226 cells; Bendamustine 125 uM, pre-incubated in medium 4 h", "result": 105, "unit": "%"},
      {"measurement": "Cell growth", "setting": "RPMI8226 cells; Bendamustine 250 uM, pre-incubated in medium 0 h", "result": "−23", "unit": "%"},
      {"measurement": "Cell growth", "setting": "RPMI8226 cells; Bendamustine 250 uM, pre-incubated in medium 1 h", "result": "−45", "unit": "%"},
      {"measurement": "Cell growth", "setting": "RPMI8226 cells; Bendamustine 250 uM, pre-incubated in medium 4 h", "result": 75, "unit": "%"},
      {"measurement": "Cell growth", "setting": "RPMI8226 cells; Bendamustine 500 uM, pre-incubated in medium 0 h", "result": "−87", "unit": "%"},
      {"measurement": "Cell growth", "setting": "RPMI8226 cells; Bendamustine 500 uM, pre-incubated in medium 1 h", "result": "−85", "unit": "%"},
      {"measurement": "Cell growth", "setting": "RPMI8226 cells; Bendamustine 500 uM, pre-incubated in medium 4 h", "result": 8, "unit": "%"},
      {"measurement": "Cell growth", "setting": "RPMI8226 cells; Bendamustine 1000 uM, pre-incubated in medium 0 h", "result": "−98", "unit": "%"},
      {"measurement": "Cell growth", "setting": "RPMI8226 cells; Bendamustine 1000 uM, pre-incubated in medium 1 h", "result": "−102", "unit": "%"},
      {"measurement": "Cell growth", "setting": "RPMI8226 cells; Bendamustine 1000 uM, pre-incubated in medium 4 h", "result": "−99", "unit": "%"},
      {"measurement": "IC50", "setting": "RPMI8226 cells; time of pre-incubation 0 h", "result": 62, "unit": "µM"},
      {"measurement": "IC50", "setting": "RPMI8226 cells; time of pre-incubation 1 h", "result": 106, "unit": "µM"},
      {"measurement": "IC50", "setting": "RPMI8226 cells; time of pre-incubation 4 h", "result": 390, "unit": "µM"},
      {"measurement": "LC50", "setting": "RPMI8226 cells; RPMI8226, change of LC50 (50% death of cells) per hour of pre-incubation in medium", "result": "107 ± 11", "unit": "µM/h"},
      {"measurement": "TGI", "setting": "RPMI8226 cells; RPMI8226, change of TGI (total growth inhibition) per hour of pre-incubation in medium", "result": "98 ± 18", "unit": "µM/h"},
      {"measurement": "concentration at 0.08 h", "setting": "[2]; 0.08 h post injection", "result": 6040, "unit": "ng/mL"},
      {"measurement": "concentration at 0.25 h", "setting": "[2]; 0.25 h post injection", "result": 2430, "unit": "ng/mL"},
      {"measurement": "concentration at 0.5 h", "setting": "[2]; 0.5 h post injection", "result": 520, "unit": "ng/mL"},
      {"measurement": "concentration at 0.75 h", "setting": "[2]; 0.75 h post injection", "result": 145, "unit": "ng/mL"},
      {"measurement": "concentration at 1 h", "setting": "[2]; 1 h post injection", "result": 48, "unit": "ng/mL"},
      {"measurement": "concentration at 1.5 h", "setting": "[2]; 1.5 h post injection", "result": 8, "unit": "ng/mL"},
      {"measurement": "concentration at 2 h", "setting": "[2]; 2 h post injection", "result": 2, "unit": "ng/mL"},
      {"measurement": "concentration at 3 h", "setting": "[2]; 3 h post injection", "result": 0, "unit": "ng/mL"}
    ]}
  ]
}
